Measurements taken from US9067898B1, “Isothiazole derivatives as GPR120 agonists for the treatment of type II diabetes” (Janssen Pharmaceutica NV, priority 2014, dated 2015).

Experiments:
[1] = target: T1, short form of the GPR120 receptor (GPR120S) (Homo sapiens, UniProt Q5NUL3); experiment: Human GPR120 DiscoveRx PathHunter Beta-Arrestin assay, Procedure β-arrestin B; assay type: cell-based; settings: PathHunter CHO-K1 GPR120S β-Arrestin cell line, 5000 cells/well, read-out: hGPR120 β-arrestin B EC50
T1 construct: host or cells: PathHunter CHO-K1 GPR120S β-Arrestin Cell Line
T1 sequence (P32121 whole entry partner, one chain of several): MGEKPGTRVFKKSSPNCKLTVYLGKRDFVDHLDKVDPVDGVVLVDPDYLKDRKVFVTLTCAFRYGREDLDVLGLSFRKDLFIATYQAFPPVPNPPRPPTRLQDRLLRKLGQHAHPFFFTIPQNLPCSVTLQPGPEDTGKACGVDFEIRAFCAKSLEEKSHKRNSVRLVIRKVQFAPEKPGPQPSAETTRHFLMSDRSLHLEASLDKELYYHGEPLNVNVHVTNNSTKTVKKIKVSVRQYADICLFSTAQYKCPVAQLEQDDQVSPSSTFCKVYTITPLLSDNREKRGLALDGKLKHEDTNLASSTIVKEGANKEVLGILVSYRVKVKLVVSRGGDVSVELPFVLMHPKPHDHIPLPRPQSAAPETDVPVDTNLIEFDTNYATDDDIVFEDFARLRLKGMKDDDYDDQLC
Summary of the method: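 PathHunter CHO-K1 β-arrestin cells expressed long-form GPR120 (Procedure A, 3000 cells/well) or short-form GPR120 (Procedure B, 5000 cells/well). Compounds were serially diluted from 25 µM and incubated 90 min at 37 °C in HBSS/20 mM HEPES/0.1% BSA, pH 7.4. Luminescence was read after 60 min detection at RT; EC50 comes from % activity versus positive control, Hill slope fixed at 1.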

[2] = target: T2, Human GPR120 short form (Homo sapiens, UniProt Q5NUL3); experiment: Human GPR120 calcium flux assay (FLIPR), Procedure Calcium B; assay type: cell-based; settings: HEK-293 cells expressing human GPR120 short form, 4200 cells/well; read-out: GPR120 Ca2+ Assay B EC50
T2 construct: expressed in transfected cells
T2 sequence (Q5NUL3 1-361): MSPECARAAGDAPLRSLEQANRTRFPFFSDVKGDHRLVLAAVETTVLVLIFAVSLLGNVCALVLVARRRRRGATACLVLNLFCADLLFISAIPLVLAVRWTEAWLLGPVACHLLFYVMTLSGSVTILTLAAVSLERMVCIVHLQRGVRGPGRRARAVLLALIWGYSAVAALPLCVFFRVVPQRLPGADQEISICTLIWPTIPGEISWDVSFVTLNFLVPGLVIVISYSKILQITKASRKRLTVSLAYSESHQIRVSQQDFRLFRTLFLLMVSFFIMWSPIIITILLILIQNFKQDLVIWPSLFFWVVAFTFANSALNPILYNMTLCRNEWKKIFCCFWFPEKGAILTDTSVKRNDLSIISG
Description: This in vitro assay serves to assess test compound agonist activity against the short splice variant (SVS with Accession number NM_001195755.1 confirmed by sequencing data) of the GPR120 receptor. The Human Short splice variant #2 (NM_001195755.1) is missing an in-frame coding exon compared to variant 1 (the Human Long splice variant NM_181745.3), resulting in a shorter isoform (GPR120-S) lacking a 16 aa protein segment compared to isoform GPR120-L. The assay platform utilizes HEK-293 cells stably transfected to express the Human GPR120 short form. These cells are first loaded with the Ca^+2 sensitive dye, Fluo-4 NW. Upon stimulation, intracellular released Ca^+2 can bind to the dye and alter its fluorescence intensity. This increase in fluorescence signal, and thus the flux in intracellular [Ca^2+], is detected and quantitated by fluorescence imaging using a FLIPR reader. The effect of the agonist is measured as a function of concentration and used to calculate an EC50 based upon a response curve.
In this procedure 4200 cells/well were employed.
A Human GPR120 clone (Genbank accession number NM_001195755.1) was placed into the pcDNA3.1 mammalian expression vector carrying the neomycin resistance gene. A stable mammalian cell was generated by placing the above clone into a HEK293 background. Clonal cells responding to long chain fatty acids had expression levels of GPR120 confirmed by RT-qPCR. Human HEK-GPR120 cells were cultured in Dulbecco's Modified Eagle's Medium (DMEM)/F12 medium supplemented with 10% fetal bovine serum (FBS), 1% L-Glutamine and 1% penicillin/streptomycin and 0.5 mg/ml G-418. Cells were split 2 times a week to keep the cells in the log-phase growth.
In preparation for the assay, HEK cells stably transfected with Human GPR120 (2.5K cells per well in 25 uL growth medium) were seeded into 384-well plates and then incubated overnight (37° C., 5% CO2). The next day, the media was changed to 20 μL assay buffer and the cell starved for 1 h at 37° C. The dye loading solution (2× dye) was prepared using 10 mL assay buffer, 100 μL of 250 mM probenecid, 1 bottle of Component A, and 20 μl of dye in DMSO. Twenty μL of the 2× dye loading buffer was then added to each well. The plates were incubated at 37° C. for 30 min, then at room temperature for an additional 15 minutes, before performing the assay on FLIPR. Test compounds were prepared in assay buffer (2 uL of cpd+198 uL assay buffer, final DMSO in assay plate is 0.2%) at the desired concentration, more particularly at 100, 50, 25, 12.5, 6.25, 3.125, 1.562, 0.781, 0.391, 0.195, 0.098, 0.049, 0.024 and 0.012 μM.
The assay was performed on a FLIPR plate reader using the following parameters. Baseline was read for 10 seconds at 1 sec intervals. The program was set to transfer 10 μL of ligand from compound plate to cell plate after baseline reading. Aspiration was executed at: 10 μL/sec speed, 4.6 μL height; Dispensing was executed at: 30 μL/sec speed, 45 μL height. After compound addition, each well was read for 300 sec, with measurements collected at 1 sec intervals.
The kinetic data from the FLIPR was based upon a 5 minute window for data collection. The fluorescence of each sample well was used for individual calculations of a normalized RFU value, which was defined as maximum response minus the minimum response. The normalized fluorescence reading (RFU) was calculated as follows: RFU=Fmax−Fmin The data were fitted to a sigmoidal dose-response curve with a variable Hill slope (<2) using nonlinear regression with GraphPad Prism 5.0 to calculate the EC50 values. The Fitting Equation was: Y=Bottom+(Top−Bottom)/(1+10^((Log EC50−X)*HillSlope)), where X is the log of the concentration and Y is the response.

Row | EC50 [1] | EC50 [2] | Compound
1 | 676 nM | 194 nM | Cc1c(CCC(=O)O)ccc(OCc2c(-c3cnc(Cl)s3)nsc2C(F)(F)F)c1C [Cpd 269, 3-(4-{[3-(2-Chloro-1,3-thiazol-5-yl)-5-(trifluoromethyl)isothiazol-4-yl]methoxy}-2,3-dimethylphenyl)propanoic acid]
2 | 246 nM | 108 nM | O=C(O)CCc1cc(F)c(OCc2c(-c3ccc(Cl)cn3)nsc2C(F)(F)F)c(F)c1 [Cpd 270, 3-(4-{[3-(5-Chloropyridin-2-yl)-5-(trifluoromethyl)isothiazol-4-yl]methoxy}-3,5-difluorophenyl)propanoic acid]
3 | 325 nM | 242 nM | COc1ccc(-c2nsc(C(F)(F)F)c2COc2c(F)cc(CCC(=O)O)cc2F)nc1 [Cpd 271, 3-(3,5-Difluoro-4-{[3-(5-methoxypyridin-2-yl)-5-(trifluoromethyl)isothiazol-4-yl]methoxy}phenyl)propanoic acid]
4 | 750 nM | 573 nM | O=C(O)CCc1cc(F)c(OCc2c(-c3ccns3)nsc2C(F)(F)F)c(F)c1 [Cpd 272, 3-(3,5-Difluoro-4-{[5-(trifluoromethyl)-3,5′-biisothiazol-4-yl]methoxy}phenyl)propanoic acid]
5 | 721 nM | 427 nM | CCc1ccc(-c2nsc(C(F)(F)F)c2COc2c(F)cc(CCC(=O)O)cc2F)nc1 [Cpd 273, 3-(4-{[3-(5-Ethylpyridin-2-yl)-5-(trifluoromethyl)isothiazol-4-yl]methoxy}-3,5-difluorophenyl)propanoic acid]
